Values belong to the compound of their own block, whether it stands above or below them. The source made the active and inactive calls. The calls are words filed in the database; no cut-off is given here.
Key:
MDA-MB-231 [1] = experiment: Antiproliferative activity against human MDA-MB-231 cells assessed as reduction in cell viability incubated for 120 hrs using ultra-low adherent 3D-spheroids by CellTiter-glo assay; assay type: functional, cell-based; conditions: MDA-MB-231, 120 h
Focal adhesion kinase 1 = Focal adhesion kinase 1 (Homo sapiens, UniProt Q05397); experiment: Inhibition of Focal adhesion kinase (unknown origin) using Tyr 07 peptide substrate incubated for 60 mins at room temperature followed by 60 mins development reaction measured fluorescence by Z-LYTE assay
HT-29 [2] = experiment: Antiproliferative activity against human HT-29 cells cultured as 3D-spheroids assessed as reduction in cell viability by Celltiter-Glo assay; assay type: functional, cell-based
HT-29 [3] = experiment: Antiproliferative activity against human HT-29 cells cultured as 2D-adherent monolayer assessed as reduction in cell viability by Celltiter-Glo assay; assay type: functional, cell-based
MDA-MB-231 [4] = experiment: Antiproliferative activity against human MDA-MB-231 cells cultured as 3D-spheroids assessed as reduction in cell viability by Celltiter-Glo assay; assay type: functional, cell-based
MDA-MB-231 [5] = experiment: Antiproliferative activity against human MDA-MB-231 cells cultured as 2D-adherent monolayer assessed as reduction in cell viability by Celltiter-Glo assay; assay type: functional, cell-based
Mus musculus = species: Mus musculus; experiment: Antiproliferative activity against CDH1-/-RHOAY42C/+ mouse diffuse gastric cancer organoid model assessed as reduction in cell viability at 5 uM; assay type: functional, tissue-based; conditions: Stomach
[6] = target: Focal adhesion kinase 1 (Mus musculus) (UniProt P34152); experiment: Inhibition of FAK in CDH1-/- RHOAY42C/+ mouse gastric cancer organoid model assessed as pFAY Y397 phosphorylation at 5 uM incubated for 24 hrs by immunoblot analysis; assay type: tissue-based; conditions: Stomach
[7] = target: Focal adhesion kinase 1 (Mus musculus) (UniProt P34152); experiment: Inhibition of FAK in CDH1-/- RHOAY42C/+ mouse gastric cancer organoid model assessed as total YAP/TAZ level at 5 uM incubated for 24 hrs by immunoblot analysis; assay type: tissue-based; conditions: Stomach
[8] = target: Focal adhesion kinase 1 (Mus musculus) (UniProt P34152); experiment: Inhibition of FAK in CDH1-/- RHOAY42C/+ mouse gastric cancer organoid model assessed as nonphosphorylated YAP at 0.1 to 20 uM incubated for 24 hrs by immunoblot analysis; assay type: tissue-based; conditions: Stomach, dose 0.1-20 µM
[9] = target: Focal adhesion kinase 1 (Mus musculus) (UniProt P34152); experiment: Inhibition of FAK in CDH1-/- RHOAY42C/+ mouse gastric cancer organoid model assessed as […] phosphorylation at 5 uM incubated for 24 hrs by immunoblot analysis; assay type: tissue-based; conditions: Stomach
[10] = target: Glycogen synthase kinase-3 beta (Homo sapiens, UniProt P49841); experiment: Inhibition of human GSK3beta
[11] = target: Protein-tyrosine kinase 2-beta (Homo sapiens, UniProt Q14289); experiment: Inhibition of Pyk2 (unknown origin)
CDK7/Cyclin H/MNAT1 = CDK7/Cyclin H/MNAT1 (Homo sapiens, UniProt P50613); experiment: Inhibition of human CDK7/cyclinH/MAT1; assay type: protein-complex assay
[12] = target: Cyclin-dependent kinase 1/cyclin B1 (Homo sapiens, UniProt P06493); experiment: Inhibition of human CDK1/cyclinB; assay type: protein-complex assay
[13] = target: Focal adhesion kinase 1 (Mus musculus) (UniProt P34152); experiment: Inhibition of FAK in CDH1-/- RHOAY42C/+ mouse gastric cancer organoid model assessed as […] phosphorylation at 0.1 to 20 uM incubated for 24 hrs by immunoblot analysis; assay type: tissue-based; conditions: Stomach, dose 0.1-20 µM
Homo sapiens = species: Homo sapiens; experiment: Antiproliferative activity against human gastric organoid assessed as reduction in cell viability by Celltiter-Glo assay; assay type: functional, tissue-based; conditions: Stomach
[14] = target: Focal adhesion kinase 1 (Mus musculus) (UniProt P34152); experiment: Inhibition of FAK in mouse gastric organoid by Immunoblotting
MDA-MB-231 [15] = experiment: Inhibition of cell migration in human MDA-MB-231 cells incubated for 24 hrs by microscopy method; assay type: functional, cell-based
[16] = Apparent permeability of the compound across apical to basolateral side in human Caco-2 cells; assay type: ADME, cell-based
[17] = target: Serine/threonine-protein kinase PLK1 (Homo sapiens) (UniProt P53350); experiment: Inhibition of PLK1 (unknown origin) assessed as cell cycle disruption
[18] = Clearance in C57BI/6 male mouse at 2 mg/kg, iv; assay type: ADME, organism-based; conditions: C57BL/6, mouse, in vivo
[19] = Half life in C57BI/6 male mouse at 2 mg/kg, iv; assay type: ADME, organism-based; conditions: C57BL/6, mouse, in vivo
[20] = Volume of distribution at steady-state in C57BI/6 male mouse at 2 mg/kg, iv; assay type: ADME, organism-based; conditions: C57BL/6, mouse, in vivo, read-out: Vdss
[21] = Cmax in C57BI/6 male mouse at 10 mg/kg, po; assay type: ADME, organism-based; design: route oral, dose 10 mg/kg; conditions: C57BL/6, mouse, in vivo
[22] = Tmax in C57BI/6 male mouse at 10 mg/kg, po; assay type: ADME, organism-based; conditions: C57BL/6, mouse, in vivo
[23] = AUC(infinity) in C57BI/6 male mouse at 10 mg/kg, po; assay type: ADME, organism-based; design: route oral, time infinity, dose 10 mg/kg; conditions: C57BL/6, mouse, in vivo
[24] = Oral bioavailability in C57BI/6 male mouse at 10 mg/kg; assay type: ADME, organism-based; conditions: C57BL/6, mouse, in vivo
[25] = Efflux ratio of apparent permeability in human Caco-2 cells; assay type: ADME, cell-based

Focal adhesion kinase 1, sequence (Q05397 whole entry): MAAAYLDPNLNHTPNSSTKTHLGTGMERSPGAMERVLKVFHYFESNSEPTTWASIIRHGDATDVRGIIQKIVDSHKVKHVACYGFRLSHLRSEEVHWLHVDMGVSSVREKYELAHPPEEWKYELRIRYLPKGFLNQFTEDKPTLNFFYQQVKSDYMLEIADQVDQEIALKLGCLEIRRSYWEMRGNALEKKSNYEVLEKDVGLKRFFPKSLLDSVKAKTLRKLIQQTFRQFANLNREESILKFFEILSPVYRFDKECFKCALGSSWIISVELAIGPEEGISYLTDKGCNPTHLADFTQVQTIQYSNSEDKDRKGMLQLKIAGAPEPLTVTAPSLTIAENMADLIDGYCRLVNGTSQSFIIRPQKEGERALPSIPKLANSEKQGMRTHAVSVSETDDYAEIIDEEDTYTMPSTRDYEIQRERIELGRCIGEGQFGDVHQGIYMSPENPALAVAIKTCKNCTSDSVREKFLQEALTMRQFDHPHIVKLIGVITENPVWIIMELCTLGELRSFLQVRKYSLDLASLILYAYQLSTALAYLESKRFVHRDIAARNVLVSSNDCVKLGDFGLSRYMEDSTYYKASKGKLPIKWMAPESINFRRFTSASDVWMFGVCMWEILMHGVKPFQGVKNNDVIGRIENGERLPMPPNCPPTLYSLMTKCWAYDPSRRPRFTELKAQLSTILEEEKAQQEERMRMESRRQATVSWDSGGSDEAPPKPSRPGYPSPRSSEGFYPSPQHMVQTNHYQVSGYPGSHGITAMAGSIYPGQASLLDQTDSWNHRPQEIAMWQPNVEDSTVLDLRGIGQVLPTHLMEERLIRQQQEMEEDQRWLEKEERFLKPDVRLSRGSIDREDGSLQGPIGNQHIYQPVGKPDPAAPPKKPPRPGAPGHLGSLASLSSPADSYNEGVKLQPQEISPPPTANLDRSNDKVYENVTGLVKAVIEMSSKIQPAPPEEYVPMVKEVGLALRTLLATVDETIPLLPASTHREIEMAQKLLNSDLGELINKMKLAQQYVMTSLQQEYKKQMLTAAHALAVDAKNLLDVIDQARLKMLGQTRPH
Focal adhesion kinase 1 (Mus musculus), sequence (P34152 whole entry): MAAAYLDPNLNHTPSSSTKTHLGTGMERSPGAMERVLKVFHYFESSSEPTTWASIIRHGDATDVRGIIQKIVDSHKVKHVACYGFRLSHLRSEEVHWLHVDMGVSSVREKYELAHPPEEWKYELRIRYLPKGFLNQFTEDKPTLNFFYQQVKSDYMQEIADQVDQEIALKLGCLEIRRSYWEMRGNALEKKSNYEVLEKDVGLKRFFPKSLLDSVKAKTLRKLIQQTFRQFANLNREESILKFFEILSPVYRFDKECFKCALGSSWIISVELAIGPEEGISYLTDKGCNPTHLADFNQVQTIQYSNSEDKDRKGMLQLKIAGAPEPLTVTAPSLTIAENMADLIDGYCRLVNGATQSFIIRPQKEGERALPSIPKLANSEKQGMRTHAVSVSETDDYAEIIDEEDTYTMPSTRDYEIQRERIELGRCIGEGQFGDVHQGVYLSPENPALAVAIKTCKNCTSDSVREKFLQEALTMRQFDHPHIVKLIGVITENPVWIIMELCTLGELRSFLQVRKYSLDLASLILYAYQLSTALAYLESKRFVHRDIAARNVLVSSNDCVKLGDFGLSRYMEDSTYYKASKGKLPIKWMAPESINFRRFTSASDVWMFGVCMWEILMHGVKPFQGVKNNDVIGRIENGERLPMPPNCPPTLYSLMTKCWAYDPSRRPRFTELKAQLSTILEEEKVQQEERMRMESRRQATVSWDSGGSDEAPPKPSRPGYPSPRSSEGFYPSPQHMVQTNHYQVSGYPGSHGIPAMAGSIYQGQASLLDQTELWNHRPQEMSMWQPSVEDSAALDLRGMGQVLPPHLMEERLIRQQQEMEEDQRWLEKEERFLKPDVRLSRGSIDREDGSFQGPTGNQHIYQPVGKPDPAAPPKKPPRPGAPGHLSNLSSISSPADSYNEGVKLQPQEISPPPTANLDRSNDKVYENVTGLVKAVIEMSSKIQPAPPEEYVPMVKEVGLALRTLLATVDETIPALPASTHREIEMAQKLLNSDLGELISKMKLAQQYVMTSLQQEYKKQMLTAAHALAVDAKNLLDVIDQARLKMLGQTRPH
CDK7/Cyclin H/MNAT1, sequence (P51946 whole entry): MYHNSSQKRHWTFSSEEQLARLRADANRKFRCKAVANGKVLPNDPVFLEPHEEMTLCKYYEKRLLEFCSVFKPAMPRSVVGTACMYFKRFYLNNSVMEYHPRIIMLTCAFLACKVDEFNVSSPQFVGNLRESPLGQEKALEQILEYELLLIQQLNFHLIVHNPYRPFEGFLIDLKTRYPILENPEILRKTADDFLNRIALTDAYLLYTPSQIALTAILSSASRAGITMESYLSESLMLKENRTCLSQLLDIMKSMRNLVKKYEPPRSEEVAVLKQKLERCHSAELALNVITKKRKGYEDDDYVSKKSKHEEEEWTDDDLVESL
CDK7/Cyclin H/MNAT1, sequence (P50613 whole entry): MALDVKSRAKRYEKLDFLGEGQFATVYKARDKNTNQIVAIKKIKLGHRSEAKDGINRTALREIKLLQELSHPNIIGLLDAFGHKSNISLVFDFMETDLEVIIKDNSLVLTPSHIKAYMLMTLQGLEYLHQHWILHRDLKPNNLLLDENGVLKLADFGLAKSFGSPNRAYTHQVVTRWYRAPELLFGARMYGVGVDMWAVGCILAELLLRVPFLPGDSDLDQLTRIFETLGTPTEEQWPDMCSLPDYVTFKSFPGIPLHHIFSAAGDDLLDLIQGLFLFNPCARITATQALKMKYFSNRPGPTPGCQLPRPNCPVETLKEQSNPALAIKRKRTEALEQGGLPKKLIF
CDK7/Cyclin H/MNAT1, sequence (P51948 whole entry, further chain): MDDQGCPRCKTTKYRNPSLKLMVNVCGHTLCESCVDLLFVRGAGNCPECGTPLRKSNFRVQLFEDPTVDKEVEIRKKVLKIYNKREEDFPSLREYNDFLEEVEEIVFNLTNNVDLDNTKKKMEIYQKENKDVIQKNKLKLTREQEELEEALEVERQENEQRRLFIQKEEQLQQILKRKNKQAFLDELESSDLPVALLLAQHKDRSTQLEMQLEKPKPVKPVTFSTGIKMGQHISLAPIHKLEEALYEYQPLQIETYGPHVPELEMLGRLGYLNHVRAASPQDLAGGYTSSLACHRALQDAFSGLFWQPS
Serine/threonine-protein kinase PLK1 (Homo sapiens), sequence (P53350 whole entry): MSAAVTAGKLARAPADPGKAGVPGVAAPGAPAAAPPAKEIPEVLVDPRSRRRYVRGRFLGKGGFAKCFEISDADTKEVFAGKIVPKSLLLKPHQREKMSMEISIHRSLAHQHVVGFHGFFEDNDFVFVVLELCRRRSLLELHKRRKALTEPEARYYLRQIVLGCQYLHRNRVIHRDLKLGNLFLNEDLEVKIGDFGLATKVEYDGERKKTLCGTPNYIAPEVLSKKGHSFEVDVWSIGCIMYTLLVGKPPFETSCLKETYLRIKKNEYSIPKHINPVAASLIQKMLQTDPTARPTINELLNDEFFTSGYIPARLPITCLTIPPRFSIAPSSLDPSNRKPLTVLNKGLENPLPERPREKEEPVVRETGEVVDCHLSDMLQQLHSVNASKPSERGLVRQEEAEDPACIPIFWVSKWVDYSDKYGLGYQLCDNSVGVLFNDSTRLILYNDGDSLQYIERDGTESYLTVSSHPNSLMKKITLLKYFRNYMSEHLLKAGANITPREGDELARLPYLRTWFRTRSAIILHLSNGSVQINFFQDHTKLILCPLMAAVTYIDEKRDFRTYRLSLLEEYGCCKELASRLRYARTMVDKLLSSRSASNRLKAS
Cyclin-dependent kinase 1/cyclin B1, sequence (P06493 whole entry): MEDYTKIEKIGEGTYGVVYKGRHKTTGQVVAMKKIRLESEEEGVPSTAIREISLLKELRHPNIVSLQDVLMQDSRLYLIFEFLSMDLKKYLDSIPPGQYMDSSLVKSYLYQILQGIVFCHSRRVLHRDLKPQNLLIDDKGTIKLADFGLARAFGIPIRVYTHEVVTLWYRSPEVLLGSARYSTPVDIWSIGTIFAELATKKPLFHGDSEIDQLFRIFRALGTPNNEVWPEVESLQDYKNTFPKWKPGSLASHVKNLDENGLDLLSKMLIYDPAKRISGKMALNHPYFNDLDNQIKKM
Cyclin-dependent kinase 1/cyclin B1, sequence (P14635 whole entry, further chain): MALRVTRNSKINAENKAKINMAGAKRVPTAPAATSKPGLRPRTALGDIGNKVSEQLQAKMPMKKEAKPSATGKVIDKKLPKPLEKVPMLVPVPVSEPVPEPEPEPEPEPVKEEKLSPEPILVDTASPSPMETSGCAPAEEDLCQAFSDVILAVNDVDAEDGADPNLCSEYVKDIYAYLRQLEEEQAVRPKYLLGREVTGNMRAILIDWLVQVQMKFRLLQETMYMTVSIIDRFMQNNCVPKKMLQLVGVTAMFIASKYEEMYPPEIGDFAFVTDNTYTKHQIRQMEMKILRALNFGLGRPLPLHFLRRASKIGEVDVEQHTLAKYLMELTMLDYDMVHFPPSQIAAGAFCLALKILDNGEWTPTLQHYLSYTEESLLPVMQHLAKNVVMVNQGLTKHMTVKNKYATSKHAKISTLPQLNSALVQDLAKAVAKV
Glycogen synthase kinase-3 beta, sequence (P49841 whole entry): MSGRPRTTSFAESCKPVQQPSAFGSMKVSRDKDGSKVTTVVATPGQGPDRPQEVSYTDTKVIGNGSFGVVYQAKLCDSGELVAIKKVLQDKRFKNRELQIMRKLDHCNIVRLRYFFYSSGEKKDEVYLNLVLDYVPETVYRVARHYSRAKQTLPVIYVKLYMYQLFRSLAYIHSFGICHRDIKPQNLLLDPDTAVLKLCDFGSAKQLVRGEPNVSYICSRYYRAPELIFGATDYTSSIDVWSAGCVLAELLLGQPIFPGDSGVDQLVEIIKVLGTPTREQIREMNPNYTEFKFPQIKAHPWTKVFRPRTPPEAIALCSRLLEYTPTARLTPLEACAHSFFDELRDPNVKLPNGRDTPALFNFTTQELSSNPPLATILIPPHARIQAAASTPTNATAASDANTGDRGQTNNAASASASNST

IC50 (MDA-MB-231 [1]): 5.9 µM
SMILES: CNC(=O)c1ccc(Nc2ncc3c(n2)N(C)c2sc(C)nc2C(=O)N3C)cc1

IC50 (MDA-MB-231 [1]): > 10 µM
SMILES: Cc1nc2c(s1)N(C)c1nc(Nc3ccc4c(c3)CCC(=O)N4)ncc1N(C)C2=O

IC50 (MDA-MB-231 [1]): > 10 µM
SMILES: CNC(=O)c1ccc(Nc2ncc3c(n2)N(C)c2sc(C)nc2C(=O)N3C)c(OC)c1

IC50 (MDA-MB-231 [1]): 6.1 µM
SMILES: CCOc1cc(N2CCN(C)CC2)ccc1Nc1ncc2c(n1)N(C)c1sc(C)nc1C(=O)N2C

IC50 (MDA-MB-231 [1]): 3.7 µM
SMILES: COc1cc(C2CCN(C)CC2)ccc1Nc1ncc2c(n1)N(C)c1sc(C)nc1C(=O)N2C
Activity (MDA-MB-231 [4]): Active | Activity (MDA-MB-231 [5]): inactive

IC50 (MDA-MB-231 [1]): 2.5 µM
SMILES: COc1cc(N2CCNCC2)ccc1Nc1ncc2c(n1)N(C)c1sc(C)nc1C(=O)N2C
Activity (MDA-MB-231 [4]): Active | Activity (MDA-MB-231 [5]): inactive

IC50 (MDA-MB-231 [1]): 2.3 µM
SMILES: COc1cc(N2CCN(C)CC2)ccc1Nc1ncc2c(n1)N(C)c1sc(C)nc1C(=O)N2C
Activity (MDA-MB-231 [4]): Active | Activity (MDA-MB-231 [5]): inactive

IC50 (Focal adhesion kinase 1): 0.0465 µM
SMILES: Cc1nc2c(s1)N(C)c1nc(Nc3ccc(N4CCN(C)CC4)cc3OCCO)ncc1N(C)C2=O

IC50 (MDA-MB-231 [1]): > 10 µM
SMILES: COc1cc2c(cc1Nc1ncc3c(n1)N(C)c1sc(C)nc1C(=O)N3C)CN(C)CC2

The next lines start with the compound.

SMILES: COc1cc(N2CCC(N3CCN(C)CC3)CC2)ccc1Nc1ncc2c(n1)N(C)c1sc(-c3ccccc3)nc1C(=O)N2C
IC50 (Focal adhesion kinase 1): > 10 µM

SMILES: COc1cc(N2CCN(CCO)CC2)ccc1Nc1ncc2c(n1)N(C)c1sc(C)nc1C(=O)N2C
IC50 (MDA-MB-231 [1]): > 10 µM

SMILES: COc1cc(N2CCN(C)CC2)c(C)cc1Nc1ncc2c(n1)N(C)c1sc(C)nc1C(=O)N2C
IC50 (MDA-MB-231 [1]): 7.7 µM

SMILES: COc1cc(N2CCC(N3CCN(C)CC3)CC2)ccc1Nc1ncc2c(n1)N(C)c1oc(C)nc1C(=O)N2C
IC50 (MDA-MB-231 [1]): > 10 µM | IC50 (Focal adhesion kinase 1): 0.525 µM

SMILES: COc1cc(N2CCN(C)CC2)ccc1Nc1ncc2c(n1)N(C)c1ncsc1C(=O)N2
IC50 (Focal adhesion kinase 1): > 10 µM

SMILES: CNC(=O)c1ccccc1Nc1cc(Nc2ccc(N3CCOCC3)cc2OC)ncc1C(F)(F)F
Activity (HT-29 [2]): Active | Activity (HT-29 [3]): Active

SMILES: CNC(=O)c1ccc(Nc2ncc(C(F)(F)F)c(NCc3nccnc3N(C)S(C)(=O)=O)n2)cc1
Activity (Mus musculus): Active | inhibition [6]: Active | Activity (HT-29 [3]): Active | inhibition [7]: Active | inhibition [8]: Active | inhibition [9]: Active

SMILES: CS(=O)(=O)c1cccc(CNc2nc(Nc3ccc4c(c3)CCC(=O)N4)ncc2C(F)(F)F)c1
IC50 [10]: < 1 µM | IC50 [11]: < 1 µM | IC50 (CDK7/Cyclin H/MNAT1): < 1 µM | IC50 [12]: < 1 µM | Activity (HT-29 [3]): Active

SMILES: COc1cc(N2CCN(S(C)(=O)=O)CC2)ccc1Nc1ncc2c(n1)N(C)c1sc(C)nc1C(=O)N2C
IC50 (MDA-MB-231 [1]): > 10 µM

SMILES: COc1cc(N2CCC(N3CCN(C)CC3)CC2)ccc1Nc1ncc2c(n1)N(C)c1sc(C)nc1C(=O)N2C
inhibition [13]: Active | Activity (Homo sapiens): Dose-dependent effect | inhibition [14]: Active | inhibition (MDA-MB-231 [15]): Active | Papp A→B [16]: 5.8 ×10⁻⁶ cm/s | inhibition [17]: inactive | clearance [18]: 18.5 mL/min/kg | half-life [19]: 5.29 h | Vd [20]: 4.07 L/kg | Cmax [21]: 420 nM | Tmax [22]: 4 h | AUC(0-inf) [23]: 1820 ng·h/mL | bioavailability [24]: 18.3% | Activity (MDA-MB-231 [4]): Active | Activity (HT-29 [2]): inactive | Activity (MDA-MB-231 [5]): inactive | Activity (HT-29 [3]): inactive

SMILES: CCN1c2nc(Nc3ccc(N4CCC(N5CCN(C)CC5)CC4)cc3OC)ncc2N(C)C(=O)c2nc(C)sc21
IC50 (MDA-MB-231 [1]): > 10 µM

SMILES: COc1cc(N2CCN(C)CC2)ccc1Nc1ncc2c(n1)N(C)c1ccccc1C(=O)N2
IC50 (Focal adhesion kinase 1): > 10 µM

SMILES: CCN1C(=O)c2nc(C)sc2N(C)c2nc(Nc3ccc(N4CCC(N5CCN(C)CC5)CC4)cc3OC)ncc21
efflux ratio [25]: 2.2 | Papp A→B [16]: 8.3 ×10⁻⁶ cm/s | IC50 (MDA-MB-231 [1]): 0.93 µM | Activity (MDA-MB-231 [4]): Active | Activity (MDA-MB-231 [5]): inactive

SMILES: COc1cc(N2CCN(C)CC2)ccc1Nc1ncc2c(n1)N(C)c1cn(C)nc1C(=O)N2
IC50 (Focal adhesion kinase 1): 0.123 µM

SMILES: COc1cc(C(=O)N2CCC(N3CCN(C)CC3)CC2)ccc1Nc1ncc2c(n1)N(C)c1sc(C)nc1C(=O)N2C
IC50 (MDA-MB-231 [1]): > 10 µM

Source: ChEMBL document CHEMBL4673383, “Discovery of a Pyrimidothiazolodiazepinone as a Potent and Selective Focal Adhesion Kinase (FAK) Inhibitor” (ACS Med Chem Lett, 2021)
